From patent publication US10352935B2, “Tumor cell-derived microvesicles” (The Hospital for Sick Children, priority 2007, dated 2019)

What was measured:
[1] = tested on: A431 tumours; test: Growth of A431 subcutaneous tumours in mice under daily CI-1033; assay type: in vivo; conditions: 20 mg/kg intraperitoneally, 7 days (FIG. 13A)
[2] = tested on: U373vIII tumours; test: Growth of U373vIII subcutaneous tumours in SCID mice under daily CI-1033; assay type: in vivo
Excerpt: U373 (human astrocytoma) cells, their stable variant U373vIII expressing Tet-off regulated EGFRvIII or EGFRvIII fused at C-terminus to green fluorescent protein (pEGFPN1) cassette (U373vIII-GFP) and A431 are maintained as described previously (Viloria-Petit et at Am. J. Pathology, 1997, 6:1523-1530; Yu et al., 2005, Blood, 105: 1734-1741) in medium containing microvesicle-depleted fetal bovine serum FBS. HUVEC cells are maintained in EGM-2 (Cambrex Bioscience, Walkesville, Md., USA). Microvesicles are collected from conditioned media or mouse plasma, as previously described (Yu & Rak, J. Thromb. Haemost, 2004, 2:2065-67; Al-Nedawi et al., 2005, Arterioscler. Thromb. Vasc. Biol., 25: 1744-1749). Briefly, media are subjected to two successive centrifugations at 300 g and 12000 g to eliminate cells and debris. Microvesicles are pelleted by ultracentrifugation for 2 hours at 100 000 g and quantified by protein content and analyzed for EGFR or EGFRvIII content. For scanning electron microscopy (SEM) the cells are grown on cover slips, fixed with 2.5% gluteraldehyde, stained with 1% OsO4, covered with gold and visualized using the JEOL 840A instrument. For in vivo analyses tumors are generated by injection of 1-10×10^6 U373vIII or U373 cells into immunodeficient (SCID) mice (Charles River, Canada). […]

[3] = tested on: Erk1/2 phosphorylation in U373 cells; test: Microvesicle transfer assay, Erk1/2 phosphorylation in U373 acceptor cells; assay type: cell-based, human; conditions: microvesicles preincubated with agent, 24 hours (FIG. 3A, 3B)
Method: (§1) U373 (acceptor) cells are treated with microvesicles for 24 hours and a single-cell suspension is analyzed by flow cytometry or fluorescent microscopy for expression of EGFRvIII or GFP. […] The expression of microvesicle associated molecules (EGFRvIII, TF), and expression of total and activated MAPK and Akt as well as other changes are assayed by immunoblot (BcIxL, p27/Kip1), ELISA (VEGF, R&D Systems), or promoter activity assays (VEGF), as described elsewhere (Lopez-Ocejo et al. 2000, Oncogene, 40:4611-4620): For soft agar colony formation assays single cell suspensions are prepared in 0.3% agarose from equal numbers of cells pretreated with microvesicles or control media. Cultures are established in plates precoated with 0.5% agarose and all colonies containing more than 4 cells are counted.

[4] = tested on: VEGF production by U373 cells; test: Microvesicle transfer assay, VEGF production by U373 cells (ELISA); assay type: cell-based, human; conditions: microvesicles preincubated with CI-1033 (FIG. 4A)
Method: as §1

[5] = tested on: VEGF promoter activity in U373 cells; test: Microvesicle transfer assay, VEGF promoter activity in U373 cells; assay type: cell-based, human; conditions: microvesicles pretreated with annexin V (FIG. 4B)
Method: as §1

[6] = tested on: Akt phosphorylation in U373 cells; test: Microvesicle transfer assay, Akt phosphorylation in U373 acceptor cells; assay type: cell-based, human; conditions: microvesicles preincubated with annexin V (FIG. 3C)
Method: as §1

[7] = tested on: BcIxL and p27/Kip1 expression in U373 cells; test: Microvesicle transfer assay, BcIxL and p27/Kip1 expression in U373 cells (immunoblot); assay type: cell-based, human; conditions: annexin V-mediated blockade of microvesicle uptake
Method: as §1

| Molecule | Tumour response (tumour size) [1] | Formation/growth of U373vIII subcutaneous tumors ([2]; SCID mice, daily doses of CI-1033 (FIG. 1D)) | Tumour response (tumour size) ([2]; U373vIII tumours, 20 mg/kg intraperitoneally, daily, 7 days (FIG. 13A)) | Erk1/2 phosphorylation induced by U373vIII-derived microvesicles [3] | Release of VEGF induced by U373vIII microvesicles [4] | VEGF promoter activity stimulated by EGFRvIII containing microvesicles [5] | Akt phosphorylation induced by U373vIII-derived microvesicles [6] | Decrease in levels of p27/Kip1 caused by EGFRvIII-containing microvesicles [7] | Increase in expression of BcIxL caused by EGFRvIII-containing microvesicles [7] |
| --- | --- | --- | --- | --- | --- | --- | --- | --- | --- |
| C=CC(=O)Nc1cc2c(Nc3ccc(F)c(Cl)c3)ncnc2cc1OCCCN1CCOCC1 [CI-1033] | responsive | susceptible to inhibition | responsive | markedly reduced | unable to induce this release of VEGF |  |  |  |  |
| annexin V: blocks exposed phosphatidylserine residues of microvesicles and thereby their uptake by U373 cells |  |  |  | abrogated |  | abrogated | inhibitable | inhibited | inhibited |
